# Experimental data from the supplement of paper PMC11208160.
# Experiment: recombinant barcode read abundance after kanamycin selection (control-corrected) (log10(CPM+1)); higher = more efficient recombination; sequences stand for … in AGTGCAGAGAAAATCGGCCAGTTTTCTCTGCCTGCAGTCCGCATGCCGT…AGATTTATGCAGCGGACTGCCTTTCTCCCAAAGTGATAAACCGGACAGTATCATGGACCGGTTTTCCCGGTAATCCGTATTTGCAAGGTTGGTTTCACT; site = the 11-nt target
# Summary of the method: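 For this pooled screen, each oligo contained a promoter, a target, a barcode and the J23119-driven first 104 bases of the bridge RNA. Gibson cloning placed it into a vector supplying the remaining 73 bp and a T7-inducible recombinase, and the pool was co-electroporated into E. coli with a donor plasmid. Recombination efficiency is derived from barcode counts per million at recombinant junctions after averaging and control correction, and is expressed on a log scale as log10(CPM+1), with selection on chloramphenicol/ampicillin/kanamycin plus 0.1 mM IPTG against a chloramphenicol/ampicillin LB agar control.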
# 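Also: IS621 recombinase and bridge RNA in Escherichia coli cells.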
row,Sequence,recombinant barcode read abundance (log10)
1,GCCGAGACTTGGGTTCTAACCTGTTGCCT (site GCCGATACTAG),0.121
2,GCCGAGTCTTGGGTTCTAACCTGTTGCTT (site GCCGAGTCTAA),0.688
3,GCCGAGTCTTGGGTTCTAACCTGTTGCTT (site GCCGAGTCTCA),0.0689
4,GCCGAGTCTTGGGTTCTAACCTGTTGCTT (site GCCGAGTCTGA),0.0417
5,GCCGAGTCTTGGGTTCTAACCTGTTGCTT (site GCCGAGTCTTA),0.6
6,GCCGATACTTGGGTTCTAACCTGTTGCCA (site AGTCTGCCTCA),0.134
7,GCCGATACTTGGGTTCTAACCTGTTGCCA (site GCCGATACTTG),0
8,GCCGATTCTTGGGTTCTAACCTGTTGCCT (site ACCGATTCTAT),0.0154
9,GCCGATTCTTGGGTTCTAACCTGTTGCCT (site GCCGATTCTAG),0.0394
10,GCCGCGACTTGGGTTCTAACCTGTTGCCT (site GCAGCGACTAG),0.207
11,GCCGCGACTTGGGTTCTAACCTGTTGCCT (site GCCGCGACTAG),0.236
12,GCCGCGACTTGGGTTCTAACCTGTTGCCT (site GCGGCGACTAG),0.204
13,GCCGCGACTTGGGTTCTAACCTGTTGCCT (site GCTGCGACTAG),0.262
14,GCCTACCCTTGGGTTCTAACCTGTTGCGG (site GCCGACCCTCG),0.0988
15,GCCTACCCTTGGGTTCTAACCTGTTGCGG (site GCCTACCCTCC),0.483
16,GCCTATTCTTGGGTTCTAACCTGTTGCGT (site GCCTATTCTAC),0.4
17,GCCTATTCTTGGGTTCTAACCTGTTGCGT (site TCCGATTCTAC),0.0523
18,GCCTGTTCTTGGGTTCTAACCTGTTGCCT (site GACTGTTCTAG),0.238
19,GCCTGTTCTTGGGTTCTAACCTGTTGCCT (site GCCTGTTCTAG),0.462
20,GCCTGTTCTTGGGTTCTAACCTGTTGCCT (site GGCTGTTCTAG),0.0257
21,GCCTGTTCTTGGGTTCTAACCTGTTGCCT (site GTCTGTTCTAG),0.137
22,GCGAACACTTGGGTTCTAACCTGTTGCTT (site GCGAACACTAA),1.9

row,Sequence,recombinant barcode read abundance (log10)
1,GCGAACACTTGGGTTCTAACCTGTTGCTT (site GCGAAGTCTAA),0.194
2,GCGAGCCCTTGGGTTCTAACCTGTTGCGT (site GCGAGCCCTAC),2.52
3,GCGAGCCCTTGGGTTCTAACCTGTTGCGT (site GCTAGCCCTCC),0.0583
4,GCGCCCTCTTGGGTTCTAACCTGTTGCCG (site CAATTACCTAA),0.194
5,GCGCCCTCTTGGGTTCTAACCTGTTGCCG (site GCGCCCTCTCG),0.606
6,GCGCCTCCTTGGGTTCTAACCTGTTGCAT (site GCGACTCCTAT),0.144
7,GCGCCTCCTTGGGTTCTAACCTGTTGCAT (site GCGCCTCCTAT),0.504
8,GCGCCTCCTTGGGTTCTAACCTGTTGCAT (site GCGGCTCCTAT),0
9,GCGCCTCCTTGGGTTCTAACCTGTTGCAT (site GCGTCTCCTAT),0.0165
10,GCGCGCCCTTGGGTTCTAACCTGTTGCGG (site GCGCGCCCTCA),0.101
11,GCGCGCCCTTGGGTTCTAACCTGTTGCGG (site GCGCGCCCTCC),1.63
12,GCGCGTGCTTGGGTTCTAACCTGTTGCCT (site GCACGTGCTAG),1.11
13,GCGCGTGCTTGGGTTCTAACCTGTTGCCT (site GCCCGTGCTAG),0.539
14,GCGCGTGCTTGGGTTCTAACCTGTTGCCT (site GCGCGTGCTAG),0.584
15,GCGCGTGCTTGGGTTCTAACCTGTTGCCT (site GCTCGTGCTAG),0.11
16,GCGCTAGCTTGGGTTCTAACCTGTTGCCT (site ACGCTAGCTAG),0.125
17,GCGCTAGCTTGGGTTCTAACCTGTTGCCT (site CCGCTAGCTAG),0.0832
18,GCGCTAGCTTGGGTTCTAACCTGTTGCCT (site GCGCTAGCTAG),0.205
19,GCGCTAGCTTGGGTTCTAACCTGTTGCCT (site TCGCTAGCTAG),0.111
20,GCGCTTACTTGGGTTCTAACCTGTTGCCT (site GAGCTTACTAG),0.191
21,GCGCTTACTTGGGTTCTAACCTGTTGCCT (site GCGCTTACTAG),0.665
22,GCGCTTACTTGGGTTCTAACCTGTTGCCT (site GGGCTTACTAG),0.0205

row,Sequence,recombinant barcode read abundance (log10)
1,GCGCTTACTTGGGTTCTAACCTGTTGCCT (site GTGCTTACTAG),0.0591
2,GCGGAAGCTTGGGTTCTAACCTGTTGCCT (site GAGGAAGCTAG),0.192
3,GCGGAAGCTTGGGTTCTAACCTGTTGCCT (site GCGGAAGCTAG),0.312
4,GCGGAAGCTTGGGTTCTAACCTGTTGCCT (site GGGGAAGCTAG),0.469
5,GCGGAAGCTTGGGTTCTAACCTGTTGCCT (site GTGGAAGCTAG),0.181
6,GCGGGGTCTTGGGTTCTAACCTGTTGCCT (site ACGGGGTCTAG),0.786
7,GCGGGGTCTTGGGTTCTAACCTGTTGCCT (site CCGGGGTCTAG),0.627
8,GCGGGGTCTTGGGTTCTAACCTGTTGCCT (site GCGGGGTCTAG),1.2
9,GCGGGGTCTTGGGTTCTAACCTGTTGCCT (site TCGGGGTCTAG),0.231
10,GCGGTATCTTGGGTTCTAACCTGTTGCCT (site GCGGTATCTAG),1.21
11,GCGGTATCTTGGGTTCTAACCTGTTGCCT (site GGGGTATCTAG),0.105
12,GCGGTGACTTGGGTTCTAACCTGTTGCCT (site ACGGTGACTAG),0.942
13,GCGGTGACTTGGGTTCTAACCTGTTGCCT (site CCGGTGACTAG),0.172
14,GCGGTGACTTGGGTTCTAACCTGTTGCCT (site GCGGTGACTAG),1.48
15,GCGGTGACTTGGGTTCTAACCTGTTGCCT (site TCGGTGACTAG),0.074
16,GCGTACCCTTGGGTTCTAACCTGTTGCCT (site GAGTACCCTAG),0.404
17,GCGTACCCTTGGGTTCTAACCTGTTGCCT (site GCGTACCCTAG),1.41
18,GCGTACCCTTGGGTTCTAACCTGTTGCCT (site GGGTACCCTAG),0.0245
19,GCGTACCCTTGGGTTCTAACCTGTTGCCT (site GTGTACCCTAG),0.0662
20,GCGTACTCTTGGGTTCTAACCTGTTGCCT (site GCGGACTCTTG),0.0368
21,GCGTACTCTTGGGTTCTAACCTGTTGCCT (site GCGTACTCTAG),2.02
22,GCGTCCACTTGGGTTCTAACCTGTTGCCT (site GCATCCACTAG),0.398

row,Sequence,recombinant barcode read abundance (log10)
1,GCGTCCACTTGGGTTCTAACCTGTTGCCT (site GCGTCCACTAG),0.0111
2,GCGTGTACTTGGGTTCTAACCTGTTGCCT (site GCGGGTACTAG),0.208
3,GCGTGTACTTGGGTTCTAACCTGTTGCCT (site GCGTGTACTAG),0.948
4,GCTAAGTCTTGGGTTCTAACCTGTTGCGT (site GCGGAGTCTAC),0.166
5,GCTAAGTCTTGGGTTCTAACCTGTTGCGT (site GCTAAGTCTAC),2.61
6,GCTAGTCCTTGGGTTCTAACCTGTTGCGT (site GCTAGTCCTAC),2.14
7,GCTAGTCCTTGGGTTCTAACCTGTTGCGT (site GCTAGTCCTCA),0.0737
8,GCTATGTCTTGGGTTCTAACCTGTTGCCT (site GCTATGTCTAG),1.42
9,GCTATGTCTTGGGTTCTAACCTGTTGCCT (site GGTATGTCTAA),0.0851
10,GCTCAGTCTTGGGTTCTAACCTGTTGCCT (site GCTCAGACTAG),0.00917
11,GCTCAGTCTTGGGTTCTAACCTGTTGCCT (site GCTCAGCCTAG),0.645
12,GCTCAGTCTTGGGTTCTAACCTGTTGCCT (site GCTCAGGCTAG),0.218
13,GCTCAGTCTTGGGTTCTAACCTGTTGCCT (site GCTCAGTCTAG),1.78
14,GCTCATGCTTGGGTTCTAACCTGTTGCCT (site GCTCATGCTAG),1.92
15,GCTCATGCTTGGGTTCTAACCTGTTGCCT (site GCTCATTCTAG),0.132
16,GCTCATTCTTGGGTTCTAACCTGTTGCCT (site GCTCATGCTAG),0
17,GCTCATTCTTGGGTTCTAACCTGTTGCCT (site GCTCATTCTAG),0.557
18,GCTCCATCTTGGGTTCTAACCTGTTGCCT (site GATCCATCTAG),0.0768
19,GCTCCATCTTGGGTTCTAACCTGTTGCCT (site GCTCCATCTAG),0.941
20,GCTCCATCTTGGGTTCTAACCTGTTGCCT (site GGTCCATCTAG),0.122
